# Assay results reported in patent US20110070314A1 (priority 2009, published 2011).
# How the values were obtained:
# [1] = mouse, in vivo
# [2] = test system: U-87MG orthotopic glioblastoma; conditions: mouse, in vivo
# [3] = mouse, in vivo; remark: listed apart in the source
# U-87MG cells = format: cell-based, human
# [4] = test system: U-87MG orthotopic glioblastoma; conditions: mouse, in vivo; remark: listed apart in the source
# T98G cells = format: cell-based, human
# U138 cells = format: cell-based, human
# U373 cells = format: cell-based, human
# brain tumors = conditions: human, in vivo
substance,measurement,setting,value
sodium meta arsenite,Adverse effects following oral and IV administration,[1],No adverse effects were observed
same,Clinical signs during testing,[1],No clinical signs were observed
same,Serum ALT and AST difference between the groups,[2],no significant difference
same,Anticancer effect,"[2]; po, 10 mg/kg",no anticancer effect
same,Crossing of the blood brain barrier,[3],can readily cross the blood brain barrier
same,Anticancer effect (cell viability) vs control,U-87MG cells,significant anticancer effects
same,Dose dependence of anticancer effect,U-87MG cells,dose-dependent anticancer effects
same,Body weight difference between groups,[4],no significant difference
same,Inhibition of tumor growth,"[4]; po, 1.25 mg/kg",28%
same,Tumor mass,"[4]; po, 1.25 mg/kg",40.2±12.3 mm^3
same,MRI imaging of tumor mass,"[4]; po, 5 mg/kg",decrease of tumor mass
same,Anticancer effect (cell viability) vs control,T98G cells,significant anticancer effects
same,Dose dependence of anticancer effect,T98G cells,dose-dependent anticancer effects
same,Anticancer effect (cell viability) vs control,U138 cells,significant anticancer effects
same,Dose dependence of anticancer effect,U138 cells,dose-dependent anticancer effects
same,Anticancer effect (cell viability) vs control,U373 cells,significant anticancer effects
same,Dose dependence of anticancer effect,U373 cells,dose-dependent anticancer effects
same,MRI finding on brain tumor,brain tumors,brain tumor was completely gone.
same,Side effects,brain tumors,Pt # 1 did not find any particular
same,Time until pain lessened,brain tumors,"side effects, and within 5 days them"
same,Effect on lung cancer,brain tumors; iv,conditions appear to be stable.
same,Effect on tumor in the brain,brain tumors; iv,the tumor in the brain disappeared
